In patent US10463048B2, “Plant disease control composition and plant disease control method” (SUMITOMO CHEMICAL COMPANY, LIMITED, priority 2015, dated 2019):

Columns and labels:
Type in all cases: in vivo
Details in all cases: 20 days after
[1] = test system: phytopathogenic Fusarium (Fusarium sp.); experiment: Test Example 23: soybean seed treatment, Fusarium pot test
Description: (§1) If the effect by the combination of two active ingredients is greater than that of the estimated value E, which is calculated by the Colby's equation as follows, the effect is regarded as synergistic. E=X+Y−X·Y/100 wherein, E=Control value when using the mixture of the active ingredients A and B at the concentrations m and n (amount of the active ingredient), respectively. X=Control value when using the active ingredient A at the concentration m (amount of the active ingredient). Y=Control value when using the active ingredient B at the concentration n (amount of the active ingredient).
Boscalid was dissolved in acetone/Tween 20 (weight ratio=95:5) to prepare a chemical liquid. In a rotary seed treatment machine (trade name: HEGE11, manufactured by WINTERSTEIGER), soybean seeds (variety:“Hatayutaka”) were treated by smearing treatment using the chemical liquid and the flowable formulation of the present bacterial strain obtained in Formulation Example 13 and sedaxane flowable formulation (43.7% flowable formulation, trade name: Vibrance, Syngenta Crop Protection LLC), so that the soybean seeds retain the bacteria, sedaxane and boscalid in the amount shown in Table 8.
Cultivation was carried out in a greenhouse under irrigation (“treated compartment”). The plants were investigated 20 days after for the number of diseased plants, and the disease incidence was calculated by the following “Equation 1”. Also, similar procedures were conducted using untreated soybean seeds, instead of the treated soybean seeds, as described above for the treated compartment (“untreated compartment”).
The plants were investigated 20 days after for the number of diseased plants, and the disease incidence was calculated by the following “Equation 1”. The control value of the treated compartment was calculated by the following equation “Equation 2”, based on the disease incidences of the treated compartment and the untreated compartment. Disease incidence (%)=100×(number of diseased plant/total number of seeded seeds): Equation 1 Control value (%)=100×[(disease incidence in untreated compartment−disease incidence in treated compartment)/disease incidence in untreated compartment]: Equation 2

[2] = test system: phytopathogenic Fusarium (Fusarium sp.); experiment: Test Example 22: soybean seed treatment, Fusarium pot test
Description: If the effect by the combination of two active ingredients is greater than that of the estimated value E, which is calculated by the Colby's equation as follows, the effect is regarded as synergistic. E=X+Y−X·Y/100 wherein, E=Control value when using the mixture of the active ingredients A and B at the concentrations m and n (amount of the active ingredient), respectively. X=Control value when using the active ingredient A at the concentration m (amount of the active ingredient). Y=Control value when using the active ingredient B at the concentration n (amount of the active ingredient). […]
Cultivation was carried out in a greenhouse under irrigation (“treated compartment”). The plants were investigated 20 days after for the number of diseased plants, and the disease incidence was calculated by the following “Equation 1”. […] The plants were investigated 20 days after for the number of diseased plants, and the disease incidence was calculated by the following “Equation 1”. The control value of the treated compartment was calculated by the following equation “Equation 2”, based on the disease incidences of the treated compartment and the untreated compartment. […]

[3] = test system: damping-off fungus (Rhizoctonia solani); experiment: Test Example 21: corn seed treatment, damping-off pot test
Description: A chemical liquid wherein penflufen is dissolved in acetone/Tween 20 (weight ratio=95:5) and a chemical liquid wherein fluxapyroxad is dissolved in acetone/Tween 20 (weight ratio=95:5) were prepared independently. In a rotary seed treatment machine (trade name: HEGE11, manufactured by WINTERSTEIGER), corn seeds (variety: yellow dent corn) were treated by smearing treatment using one of these chemical liquid and the flowable formulation of the present bacterial strain obtained in Formulation Example 13, so that the corn seeds retain the present bacterial strain and/or the compound in the amount shown in Table 6.
Cultivation was carried out in a greenhouse under irrigation (“treated compartment”). The plants were investigated 20 days after for the number of diseased plants, and the disease incidence was calculated by the following “Equation 1”. Similar procedures were conducted using untreated corn seeds, instead of the treated corn seeds, as described above for the treated compartment (“untreated compartment”). The plants were investigated 20 days after for the number of diseased plants, and the disease incidence was calculated by the following “Equation 1”. The control value of the treated compartment was calculated by the following equation “Equation 2”, based on the disease incidences of the treated compartment and the untreated compartment. Disease incidence (%)=100×(number of diseased plant/total number of seeded seeds): Equation 1 Control value (%)=100×[(disease incidence in untreated compartment−disease incidence in treated compartment)/disease incidence in untreated compartment]: Equation 2
as §1

[4] = soybean seeds retaining 0.05 g/Kg seeds of compound alone
[5] = corn seeds retaining 0.005 g/Kg seeds of compound alone

## O=C(Nc1ccccc1-c1ccc(Cl)cc1)c1cccnc1Cl [Boscalid, boscalid]
[1]; [4]
  Controlling Effect: 23%
[1]; soybean seeds retaining 0.1 g/Kg seeds of compound alone
  Controlling Effect: 47%

## O=C(NCCc1ncc(C(F)(F)F)cc1Cl)c1ccccc1C(F)(F)F [Fluopyram, fluopyram]
[2]; soybean seeds retaining 0.025 g/Kg seeds of compound alone
  Controlling Effect: 29%
[2]; [4]
  Controlling Effect: 44%

## Cn1cc(C(=O)Nc2ccccc2-c2cc(F)c(F)c(F)c2)c(C(F)F)n1 [Fluxapyroxad, fluxapyroxad]
[3]; corn seeds retaining 0.0025 g/Kg seeds of compound alone
  Controlling Effect: 31%
[3]; [5]
  Controlling Effect: 39%

## Cc1nn(C)c(F)c1C(=O)Nc1ccccc1C(C)CC(C)C (stereo not shown) [Penflufen, penflufen]
[3]; [5]
  Controlling Effect: 25%
[3]; corn seeds retaining 0.01 g/Kg seeds of compound alone
  Controlling Effect: 42%

## Cn1cc(C(=O)Nc2ccccc2C2CC2C2CC2)c(C(F)F)n1 (stereo not shown) [Sedaxane, sedaxane]
[1]; soybean seeds retaining 0.005 g/Kg seeds of compound alone
  Controlling Effect: 32%
[1]; soybean seeds retaining 0.01 g/Kg seeds of compound alone
  Controlling Effect: 35%
